Positions of bridges follow the written chain, without caps; N, C: chain ends. Non-standard residues stand in square brackets, D forms with d. Residues, ends and D or L forms follow the SMILES beside them. pS = N[C@@H](COP(=O)(O)O)C(=O)O
How the values were obtained:
[1] = biological target: T1, Calf intestinal alkaline phosphatase (CIP) (Bos taurus, UniProt P19111); assay: Alkaline phosphatase reaction (dephosphorylation of peptide substrates, LCMS); format: in vitro ADME; details: Alkaline phosphatase pH 8, 90 minutes at 37° C.
T1 construct: purchased New England BioLabs, Ipswich, Mass; M0290S
T1 sequence (P19111 20-506): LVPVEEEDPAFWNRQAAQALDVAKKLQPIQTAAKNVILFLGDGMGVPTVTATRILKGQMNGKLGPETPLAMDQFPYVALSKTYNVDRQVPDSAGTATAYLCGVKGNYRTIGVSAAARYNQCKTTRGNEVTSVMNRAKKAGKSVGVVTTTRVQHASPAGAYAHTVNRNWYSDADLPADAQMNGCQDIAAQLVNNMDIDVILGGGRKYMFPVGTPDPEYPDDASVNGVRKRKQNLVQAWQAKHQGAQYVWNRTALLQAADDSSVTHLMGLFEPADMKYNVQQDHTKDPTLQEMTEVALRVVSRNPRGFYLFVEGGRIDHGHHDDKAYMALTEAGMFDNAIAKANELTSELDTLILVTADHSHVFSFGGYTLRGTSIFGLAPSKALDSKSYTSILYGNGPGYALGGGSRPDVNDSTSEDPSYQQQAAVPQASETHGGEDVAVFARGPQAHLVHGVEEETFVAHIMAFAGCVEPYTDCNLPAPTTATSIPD
Protocol: (§1) For the alkaline phosphatase reactions, peptide stocks were prepared at 1 mg/mL in 0.1 M Tris-HCl pH 8, which were stored at −20° C. until assays were conducted. For the acid phosphatase reactions, peptide stocks were prepared at 1 mg/mL in 50 mM sodium phosphate pH 6, which was stored at −20° C. until assays were conducted.
(§2) Calf intestinal alkaline phosphatase (CIP) was obtained from New England BioLabs, Ipswich, Mass. Cat # M0290S. The CIP reaction solution was prepared by dilution with buffer (50 mM KCl, 10 mM Tris-HCl pH 8, 1 mM MgCl2, 50% glycerol) to 0.5 units/μL. The alkaline phosphatase reaction solutions were assembled in 20 μL quantities containing: • 2 μL 10× CIP buffer (1M NaCl, 500 mM Tris-HCl pH 8, 100 mM MgCl2) • 2 μL peptide stock (1 mg/mL) • 12 μL H2O • 4 μL alkaline phosphatase (0, 0.5 or 2 units)
(§3) The reaction solutions were mixed gently and incubated for 90 minutes at 37° C. These reaction solutions were stored at −20° C. until analysis. For analysis, the reaction solutions were diluted from 7.5 μL of CIP treated peptide to 50 μL with 0.1% formic acid in water to a final concentration of 10 μM.
(§4) Control reactions were assembled for enzyme activity containing 10 mM p-nitrophenylphosphate in place of peptide. After incubation, the reactions were diluted with 0.1 mL of 100 mM borate buffer pH 9 and read at the absorbance of 405 nm to monitor p-nitrophenol appearance.

[2] = tested on: T2, calf intestinal alkaline phosphatase (CIP); assay: as above; format: in vitro ADME; details: calf intestinal alkaline phosphatase (CIP); Alkaline phosphatase pH 8, 90 minutes at 37° C.
T2 construct: purchased New England BioLabs, Ipswich, Mass; M0290S
Protocol: as §1, §2, §3, §4

[3] = biological target: T3, human prostate acid phosphatase (HuPrAP) (Homo sapiens, UniProt P15309); assay: Acid phosphatase reaction, human prostate acid phosphatase; format: in vitro ADME; details: Human prostatic acid phosphatase pH 5, 90 minutes at 37° C.
T3 construct: purchased MP Biochemicals, Solon, Ohio 153872
T3 sequence (P15309 33-386): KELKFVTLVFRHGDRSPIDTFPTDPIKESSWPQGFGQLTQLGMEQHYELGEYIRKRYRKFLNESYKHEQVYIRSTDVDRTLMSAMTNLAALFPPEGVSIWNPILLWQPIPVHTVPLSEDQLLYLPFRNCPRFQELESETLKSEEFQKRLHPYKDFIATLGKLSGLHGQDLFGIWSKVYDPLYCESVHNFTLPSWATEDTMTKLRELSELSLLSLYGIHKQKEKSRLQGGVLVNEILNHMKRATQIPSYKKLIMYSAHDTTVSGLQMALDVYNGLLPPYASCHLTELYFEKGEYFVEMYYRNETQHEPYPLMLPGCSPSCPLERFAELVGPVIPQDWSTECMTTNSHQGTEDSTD
Protocol: as §1
(§5) Potato acid phosphatase (PoAP) was obtained from Sigma, St. Louis, Miss. Cat #P1146 and human prostate acid phosphatase (HuPrAP) was obtained from MP Biochemicals, Solon, Ohio. Cat # 153872. The acid phosphatases were dissolved to provide a solution containing 0.5 units AP/μL using 50 mM sodium acetate pH 5, 0.2 mM MgCl2. The acid phosphatase reactions were assembled in 20 μL quantities containing: • 2 μL 10× acid phosphatase buffer (500 mM sodium acetate pH 5, 2 mM MgCl2) • 2 μL peptide stock (1 mg/mL) • 12 μL H2O • 4 μL acid phosphatase (0.5 or 2 units)
(§6) The reaction solutions were mixed gently and incubated for 90 minutes at 37° C. The reaction solutions were stored at −20° C. for later analysis. For analysis, 7.5 μL acid phosphatase reactions were diluted to 50 μL with 0.1% formic acid in water to a final concentration of 10 μM. The control reactions for enzyme activity were assembled and diluted to 10 mM p-nitrophenylphosphate in place of peptide. After incubation, the reactions were diluted with 0.1 mL of 100 mM borate buffer pH 9 and read at the absorbance of 405 nm to monitor p-nitrophenol appearance.

[4] = tested on: potato acid phosphatase (PoAP); assay: Acid phosphatase reaction, potato acid phosphatase; format: in vitro ADME; details: potato acid phosphatase (PoAP); Potato acid phosphatase pH 5, 90 minutes at 37° C.
Protocol: as §1, §5, §6

[5] = tested on: Potato acid phosphatase (PoAP); assay: Acid phosphatase reaction, potato acid phosphatase; format: in vitro ADME; details: Potato acid phosphatase pH 5, 90 minutes at 37° C.
Protocol: as §1, §5, §6

female CD-1 mice = assay: Gastrointestinal transit in mice (charcoal meal); format: in vivo; details: oral gavage, % distance travelled by charcoal front
Protocol: The purpose of the assay was to test the effect of the guanylate cyclase C agonist peptides on in vivo gastrointestinal transit in mice.
For the assay, female CD-1 mice (n=10 per group) weighing 25-30 g were fasted overnight and given access to water ad libitum. Activated charcoal (20 g; 100 mesh; Sigma cat# 242276) was suspended in 200 mL gum arabic (100 mg/mL), and stirred for at least one hour. Test peptides were prepared in a 20 mM Tris pH 6.9 vehicle.
Test peptide and vehicle were administered in 200 μL doses by oral gavage. Seven minutes after dosing the test peptides, 200 μL of the charcoal/gum arabic suspension was dosed by oral gavage. […] The total length of the small intestine was measured from the pyloric junction to the ileocaecal junction. The distance travelled by the charcoal was measured from the pyloric junction to the charcoal front. The Distance Travelled (%) was determined as (distance travelled by charcoal/total length of the small intestine)×100. Data were entered into the GraphPad Prism software program and analyzed by ANOVA using a Bonferroni multiple comparison test post-hoc. Plots of data and ED50 were also determined using the GraphPad Prism software package.
The dose-dependent effects of acute doses of Peptide 4, Peptide 1, Peptide 2, the dephosphorylated form of Peptide 1 and the dephosphorylated form of Peptide 2 on GI transit were determined in female CD mice. […]

[6] = tested on: ligated rat duodenal loops; assay: Fluid secretion in rat intestinal loops; format: in vivo, rats
Protocol: The effect of GC-C agonist peptides on secretion were studied by injecting GC-C agonist peptides described herein directly into an isolated loop in wild-type rats.
Loops were isolated by surgically ligating three loops in the small intestine of the rat. The methodology for ligated loop formation was similar to that described in (London et al., 1997, Am J Physiol, p. G93-105). The loops were roughly centered and at lengths of 1-3 cm. The loops were injected with 200 μl of either peptide/GC-C agonist (0.1-5 μg) or vehicle (20 mM Tris, pH 7.5 or Krebs Ringer, 10 mM Glucose, HEPES buffer (KRGH)). Following a recovery time of up to 90 minutes the loops were excised. Weights were recorded for each loop before and after removal of the fluid contained therein. The length of each loop was also recorded. A weight to length ratio (W/L) for each loop was calculated to determine the effects of the GC-C agonist peptide described herein on secretion. Loop fluid volume was also determined.
Data showing increases in fluid secretion, pH increase and bicarbonate secretion in ligated duodenal loops in rats are shown in FIG. 2 and Table 8. […] Table 8 provides the results in ligated rat duodenal loops using 2.5 μg of peptide per loop.

[7] = 2.5 μg of peptide per loop, duodenal loops

| Compound | Dephospho (%) [1] [%] | remaining at 1.5 h, 0.1 mg/mL [2] [%] | Dephospho (%) [3] [%] | remaining at 1.5 h, 0.1 mg/mL ([3]; human prostate acid phosphatase (HuPrAP)) [%] | remaining at 1.5 h, 0.1 mg/mL [4] [%] | Dephospho (%) [5] [%] | ED50 (μg/kg), acceleration of upper GI transit (female CD-1 mice) [µg/kg] | Rate of HCO3^− accumulation [6, 7] [Meq/min/cm] | Rate of fluid accumulation [6, 7] [µL/min/cm] | pH [6, 7] | Induction of fluid accumulation / duodenal fluid secretion (FIG. 2) ([6]; ligated rat duodenal loops) |
| --- | --- | --- | --- | --- | --- | --- | --- | --- | --- | --- | --- |
| CC(C)C[C@@H]1NC(=O)[C@H](COP(=O)(O)O)NC(=O)[C@@H]2CSSC[C@@H]3NC(=O)[C@H](C)NC(=O)[C@@H]4CCCN4C(=O)[C@H](CC(N)=O)NC(=O)[C@H](CSSC[C@H](N)C(=O)N2)NC(=O)[C@H](CSSC[C@@H](C(=O)N[C@@H](Cc2ccc(O)cc2)C(=O)O)NC(=O)CNC(=O)[C@H]([C@@H](C)O)NC3=O)NC1=O [Peptide 1, CCpSLCCNPACTGCY] (H-CC[pS]LCCNPACTGCY-OH; disulfide 1-6, 2-10, 5-13 (inferred); N-terminus and C-terminus assumed) | 100 | 0 | 6.2 | 93.8 | 77.8 | 22.1 | – | – | – | – | – |
| CCEFCCNPACTGCY [Peptide 4, GC-C agonist peptide with Glu in place of phosphoserine, used as comparator] | – | – | – | – | – | – | 2.06 | 0.00008 | 2.0 | 8.2 | promote duodenal fluid secretion |

Source: US20140179607A9 (IRONWOOD PHARMACEUTICALS, INC, priority 2009, published 2014)
